Assay results reported in patent US12643871B2, “Aryl formamide compound containing chiral sulfur oxide or salt thereof, preparation method, herbicidal composition and use thereof” (Qingdao Kingagroot Chemical Compound Co., Ltd., priority 2019, dated 2026).

Experiments:
Format in all cases: in vivo
[1] = test system: Amaranthus retroflexus; assay: Weeding effect in post-emergence stage; settings: 250 g/ha; 2 leaf stage; 15 days after application; fresh weight control rate
How it was run: (§1)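 Pot-grown weeds sprayed post-emergence at the 2-leaf stage, 2 weeks after sowing, with compound in acetone/Tween 80 plus 1.5 L/ha methyl oleate concentrate at 500–15 g/ha. Fresh-weight growth control scored after 15 days in greenhouse, mean of three replicates, graded levels 0–5 (5: >85%, 0: <5%).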

[2] = test system: Setaria viridis; assay: Weeding effect in post-emergence stage; settings: 250 g/ha; 2 leaf stage; 15 days after application; fresh weight control rate
How it was run: as §1

[3] = test system: Abutilon theophrasti; assay: Weeding effect in post-emergence stage; settings: 250 g/ha; 2 leaf stage; 15 days after application; fresh weight control rate
How it was run: as §1

[4] = test system: Echinochloa crusgali; assay: Weeding effect in post-emergence stage; settings: 250 g/ha; 2 leaf stage; 15 days after application; fresh weight control rate
How it was run: as §1

[5] = test system: Digitaria sanguinalis; assay: Weeding effect in post-emergence stage; settings: 250 g/ha; 2 leaf stage; 15 days after application; fresh weight control rate
How it was run: as §1

[6] = test system: key weeds such as Digitaria sanguinalis, Leptochloa chinensis; assay: Comparison experiment (post-emergence, Tables 4-7), herbicidal activity on weeds not listed separately
Source text: The above growth control rates are fresh weight control rates.
Experiment on weeding effect in post-emergence stage: monocotyledonous and dicotyledonous weed seeds (Descurainia sophia, Capsella bursa-pastoris, Galium aparine, Stellaria media, Lithospermum arvense, Rorippa indica, Alopecurus aequalis, Beckmannia syzigachne, Sclerochloa dura, Phleum paniculatum, Bromus japonicus, Aegilops tauschii, Phalaris arundinacea, Amaranthus retroflexus, Chenopodiaceae, Commelina communis, Sonchus arvensis, convolvulus arvensis, Cirsium setosum, Solanum nigrum, Acalypha australis, Digitaria sanguinalis, Echinochloa crusgalli, Setaria viridis, Setaria glauca, Leptochloa chinensis, Monochoria vaginalis, Sagittaria trifolia, Scirpus juncoides, Cyperus rotundus, Cyperus iria, Cyperus difformis, Fimbristylis, Portulaca oleracea, Xanthium sibiricum, Pharbitis nil) and major crop seeds (wheat, corn, rice, soybean, cotton, oilseed rape, millet, sorghum, potato, sesame, ricinus) were placed in plastic pots filled with soil, then covered with 0.5-2 cm of soil, allowed to grow in a good greenhouse environment. After 2 weeks of sowing, the test plants were treated in the 2 leaf stage. The tested compounds of the present invention were respectively dissolved in acetone, then added with Tween 80 and 1.5 liter/ha of emulsifiable concentrate of methyl oleate as synergist, diluted with a certain amount of water to obtain a solution with a certain concentration, and sprayed with a spray tower onto the plants. After the application, the plants were cultured for 15 days in the greenhouse, and then the experimental results of the weeding were counted. The doses of the used compounds were 500, 250, 125, 60, 30, 15 g/ha, and the averages were obtained by repeating for three times.
If there is no clear marker, the post-seedling test conditions are the same as above, and the experimental results are shown in Tables 4-7.

[7] = doses of 125, 60, 30, 15 g/ha, X replaced by other five membered rings

SMILES | weeding effect in post-emergence stage, activity level (growth control rate), Amaranthus retroflexus [1] | weeding effect in post-emergence stage, activity level (growth control rate), Setaria viridis [2] | weeding effect in post-emergence stage, activity level (growth control rate), Abutilon theophrasti [3] | weeding effect in post-emergence stage, activity level (growth control rate), Echinochloa crusgali [4] | weeding effect in post-emergence stage, activity level (growth control rate), Digitaria sanguinalis [5] | herbicidal activity and/or crop safety compared with the corresponding racemate or S configuration ([6]; no dose stated) | herbicidal activity and/or crop safety compared with the corresponding racemate or S configuration [6, 7] | herbicidal activity and/or crop safety compared with the corresponding racemate or S configuration ([6]; dose of 120, 48, 30, 24 g/ha)
COc1c(C(=O)Nc2nnc(C)o2)ccc(C(F)(F)F)c1[S@+]([O-])CC1CC1 [Compound 310] | 5 (Level 5: growth control rate is above 85%) | 5 (Level 5: growth control rate is above 85%) | 5 (Level 5: growth control rate is above 85%) | 5 (Level 5: growth control rate is above 85%) | 5 (Level 5: growth control rate is above 85%) | better herbicidal activity and/or crop safety |  | 
C=CC[S@@+]([O-])c1c(C(F)(F)F)ccc(C(=O)Nc2nnc(C)o2)c1OC [Compound 311] | 5 (Level 5: growth control rate is above 85%) | 5 (Level 5: growth control rate is above 85%) | 5 (Level 5: growth control rate is above 85%) | 5 (Level 5: growth control rate is above 85%) | 5 (Level 5: growth control rate is above 85%) | better herbicidal activity and/or crop safety |  | 
COc1c(C(=O)Nc2nnc(C)o2)ccc(C(F)(F)F)c1[S@+]([O-])CC(C)F (stereo partly drawn) [Compound 321] | 5 (Level 5: growth control rate is above 85%) | 5 (Level 5: growth control rate is above 85%) | 5 (Level 5: growth control rate is above 85%) | 5 (Level 5: growth control rate is above 85%) | 5 (Level 5: growth control rate is above 85%) | better herbicidal activity and/or crop safety |  | 
COc1c(C(=O)Nc2nnc(C)o2)ccc(C(F)(F)F)c1[S@+]([O-])CCON=C(C)C [Compound 348] | 5 (Level 5: growth control rate is above 85%) | 5 (Level 5: growth control rate is above 85%) | 5 (Level 5: growth control rate is above 85%) | 5 (Level 5: growth control rate is above 85%) | 5 (Level 5: growth control rate is above 85%) | better herbicidal activity and/or crop safety |  | 
CCC[S@@+]([O-])c1c(C(F)(F)F)ccc(C(=O)Nc2nnnn2C)c1F [Compound 379] | 5 (Level 5: growth control rate is above 85%) | 5 (Level 5: growth control rate is above 85%) | 5 (Level 5: growth control rate is above 85%) | 5 (Level 5: growth control rate is above 85%) | 5 (Level 5: growth control rate is above 85%) |  | better herbicidal activity and/or crop safety | 
CC(C)C[S@@+]([O-])c1c(C(F)(F)F)ccc(C(=O)Nc2nnnn2C)c1F [Compound 380] | 5 (Level 5: growth control rate is above 85%) | 5 (Level 5: growth control rate is above 85%) | 5 (Level 5: growth control rate is above 85%) | 5 (Level 5: growth control rate is above 85%) | 5 (Level 5: growth control rate is above 85%) |  | better herbicidal activity and/or crop safety | 
CCCC[S@@+]([O-])c1c(C(F)(F)F)ccc(C(=O)Nc2nnc(C)o2)c1SC [Compound 550] | 5 (Level 5: growth control rate is above 85%) | 5 (Level 5: growth control rate is above 85%) | 5 (Level 5: growth control rate is above 85%) | 5 (Level 5: growth control rate is above 85%) | 5 (Level 5: growth control rate is above 85%) |  |  | better herbicidal activity and/or crop safety
C=CC[S@@+]([O-])c1c(C(F)(F)F)ccc(C(=O)Nc2nnc(C)o2)c1SC [Compound 552] | 5 (Level 5: growth control rate is above 85%) | 5 (Level 5: growth control rate is above 85%) | 5 (Level 5: growth control rate is above 85%) | 5 (Level 5: growth control rate is above 85%) | 5 (Level 5: growth control rate is above 85%) |  |  | better herbicidal activity and/or crop safety
CSc1c(C(=O)Nc2nnc(C)o2)ccc(C(F)(F)F)c1[S@+]([O-])CC1CC1 [Compound 554] | 5 (Level 5: growth control rate is above 85%) | 5 (Level 5: growth control rate is above 85%) | 5 (Level 5: growth control rate is above 85%) | 5 (Level 5: growth control rate is above 85%) | 5 (Level 5: growth control rate is above 85%) |  |  | better herbicidal activity and/or crop safety
CSc1c(C(=O)Nc2nnc(C)o2)ccc(C(F)(F)F)c1[S@+]([O-])CCCF [Compound 559] | 5 (Level 5: growth control rate is above 85%) | 5 (Level 5: growth control rate is above 85%) | 5 (Level 5: growth control rate is above 85%) | 5 (Level 5: growth control rate is above 85%) | 5 (Level 5: growth control rate is above 85%) |  |  | better herbicidal activity and/or crop safety
CCC[S@@+]([O-])c1c(C(F)(F)F)ccc(C(=O)Nc2nnc(C)o2)c1SCC [Compound 569] | 5 (Level 5: growth control rate is above 85%) | 5 (Level 5: growth control rate is above 85%) | 5 (Level 5: growth control rate is above 85%) | 5 (Level 5: growth control rate is above 85%) | 5 (Level 5: growth control rate is above 85%) |  |  | better herbicidal activity and/or crop safety
CCC[S@@+]([O-])c1c(C(F)F)ccc(C(=O)Nc2nnnn2C)c1F [Compound 856] | 5 (Level 5: growth control rate is above 85%) | 5 (Level 5: growth control rate is above 85%) | 5 (Level 5: growth control rate is above 85%) | 5 (Level 5: growth control rate is above 85%) | 5 (Level 5: growth control rate is above 85%) |  | better herbicidal activity and/or crop safety | 
